Source: PubChem BioAssay AID1259407 (Chemical Carcinogenesis Research Information System (CCRIS), 2018)
Calls of active or inactive are those of the source. How the calls were made is not given here.

Tested on: CCRIS mutagenicity, Ames/micronucleus/aberration tests
Assay: CCRIS mutagenicity studies
[1] = Test System: AMES SALMONELLA TYPHIMURIUM, Strain/Indicator: TA100, Metabolic Activation: NONE, Method: PREINCUBATION
[2] = Test System: AMES SALMONELLA TYPHIMURIUM, Strain/Indicator: TA1535, Metabolic Activation: NONE, Method: PREINCUBATION
[3] = Test System: AMES SALMONELLA TYPHIMURIUM, Strain/Indicator: TA1537, Metabolic Activation: NONE, Method: PREINCUBATION
[4] = Test System: AMES SALMONELLA TYPHIMURIUM, Strain/Indicator: TA1535, Metabolic Activation: NONE, Method: STANDARD PLATE
[5] = Test System: AMES SALMONELLA TYPHIMURIUM, Strain/Indicator: TA100, Metabolic Activation: NONE, Method: STANDARD PLATE

Structure (SMILES): Nc1ncnc2c1nc(Cl)n2[C@@H]1O[C@@H]2COP(=O)(O)O[C@H]2[C@H]1O
- mutagenic call (End Point: IN VIVO CHROMOSOMAL ABERRATIONS, Test System: BONE MARROW, Species: MOUSE, Strain/Sex: BALB/C, Route: IP): active; positive (structural and ploidy changes)
- mutagenic call (End Point: IN VIVO MICRONUCLEUS, Test System: BONE MARROW, Species: MOUSE, Strain/Sex: BALB/C, Route: IP): active; positive
- mutagenic call (Test System: MOUSE LYMPHOMA, Strain/Indicator: L5178Y (TK+/TK-), Metabolic Activation: NONE, Method: SUSPENSION/PLATE): inactive; negative. reevaluation of results: negative
- mutagenic call (Test System: MOUSE LYMPHOMA, Strain/Indicator: L5178Y (TK+/TK-), Metabolic Activation: RAT, LIVER, S-9, AROCLOR 1254, Method: SUSPENSION/PLATE): inactive; negative. reevaluation of results: negative

Structure (SMILES): O=C(O)CBr
- mutagenic call (End Point: IN VITRO CHROMOSOMAL ABERRATIONS, Test System: CHL CELLS, Metabolic Activation: NONE): active; positive (structural changes)
- mutagenic call (End Point: IN VITRO CHROMOSOMAL ABERRATIONS, Test System: CHL CELLS, Metabolic Activation: RAT, LIVER, S-9, SODIUM PHENOBARBITAL AND 5,6-BENZOFLAVONE): active; positive (structural changes)
- mutagenic call (Test System: AMES SALMONELLA TYPHIMURIUM, Strain/Indicator: RSJ100, Metabolic Activation: NONE, Method: PREINCUBATION): inactive; negative
- mutagenic call (Test System: AMES SALMONELLA TYPHIMURIUM, Strain/Indicator: RSJ100, Metabolic Activation: RAT LIVER S-9, AROCLOR 1254, Method: PREINCUBATION): inactive; negative
- mutagenic call (Test System: AMES SALMONELLA TYPHIMURIUM, Strain/Indicator: TA98, Metabolic Activation: RAT LIVER S-9, AROCLOR 1254, Method: PREINCUBATION): active; positive
- mutagenic call (Test System: AMES SALMONELLA TYPHIMURIUM, Strain/Indicator: TA98, Metabolic Activation: RAT LIVER S-9, PHENOBARBITAL AND BETA-NAPHTHOFLAVONE, Method: PREINCUBATION): inactive; negative
- mutagenic call (Test System: AMES SALMONELLA TYPHIMURIUM, Strain/Indicator: TA100, Metabolic Activation: NONE, Method: FLUCTUATION TEST): inactive; negative
- mutagenic call [1]: active; positive
- mutagenic call (Test System: AMES SALMONELLA TYPHIMURIUM, Strain/Indicator: TA100, Metabolic Activation: RAT LIVER S-9, AROCLOR 1254, Method: PREINCUBATION): active; positive
- mutagenic call (Test System: AMES SALMONELLA TYPHIMURIUM, Strain/Indicator: TA100, Metabolic Activation: RAT LIVER S-9, PHENOBARBITAL AND BETA-NAPHTHOFLAVONE, Method: PREINCUBATION): inactive; negative
- mutagenic call (Test System: AMES SALMONELLA TYPHIMURIUM, Strain/Indicator: TA100, Metabolic Activation: RAT, LIVER, S-9, AROCLOR 1254, Method: FLUCTUATION TEST): active; positive
- mutagenic call [2]: inactive; negative
- mutagenic call (Test System: AMES SALMONELLA TYPHIMURIUM, Strain/Indicator: TA1535, Metabolic Activation: RAT LIVER S-9, PHENOBARBITAL AND BETA-NAPHTHOFLAVONE, Method: PREINCUBATION): inactive; negative
- mutagenic call [3]: inactive; negative
- mutagenic call (Test System: AMES SALMONELLA TYPHIMURIUM, Strain/Indicator: TA1537, Metabolic Activation: RAT LIVER S-9, PHENOBARBITAL AND BETA-NAPHTHOFLAVONE, Method: PREINCUBATION): inactive; negative
- mutagenic call (Test System: E.COLI, Strain/Indicator: WP2UVRA, Metabolic Activation: NONE, Method: PREINCUBATION): inactive; negative
- mutagenic call (Test System: E.COLI, Strain/Indicator: WP2UVRA, Metabolic Activation: RAT LIVER S-9, PHENOBARBITAL AND BETA-NAPHTHOFLAVONE, Method: PREINCUBATION): inactive; negative

Structure (SMILES): O=C1NC2(CCCCC2)C(=O)N1CCN1CC1
- mutagenic call [4]: active; positive

Structure (SMILES): CCOC(=O)Cc1c(C(=O)O)c2ccccc2n1C
- mutagenic call (Test System: AMES SALMONELLA TYPHIMURIUM, Strain/Indicator: TA97, Metabolic Activation: NONE, Method: STANDARD PLATE): inactive; negative
- mutagenic call (Test System: AMES SALMONELLA TYPHIMURIUM, Strain/Indicator: TA97, Metabolic Activation: RAT, LIVER, S-9, AROCLOR 1254 (4%, 10%), Method: STANDARD PLATE): inactive; negative
- mutagenic call (Test System: AMES SALMONELLA TYPHIMURIUM, Strain/Indicator: TA98, Metabolic Activation: NONE, Method: STANDARD PLATE): inactive; negative
- mutagenic call (Test System: AMES SALMONELLA TYPHIMURIUM, Strain/Indicator: TA98, Metabolic Activation: RAT, LIVER, S-9, AROCLOR 1254 (4%, 10%), Method: STANDARD PLATE): inactive; negative
- mutagenic call [5]: inactive; negative
- mutagenic call (Test System: AMES SALMONELLA TYPHIMURIUM, Strain/Indicator: TA100, Metabolic Activation: RAT, LIVER, S-9, AROCLOR 1254 (4%, 10%), Method: STANDARD PLATE): inactive; negative
- mutagenic call (Test System: AMES SALMONELLA TYPHIMURIUM, Strain/Indicator: TA102, Metabolic Activation: NONE, Method: STANDARD PLATE): inactive; negative
- mutagenic call (Test System: AMES SALMONELLA TYPHIMURIUM, Strain/Indicator: TA102, Metabolic Activation: RAT, LIVER, S-9, AROCLOR 1254 (4%, 10%), Method: STANDARD PLATE): inactive; negative

Structure (SMILES): NCCCCCCN
- mutagenic call (Test System: AMES SALMONELLA TYPHIMURIUM, Strain/Indicator: TA98, Metabolic Activation: HAMSTER, LIVER, S-9, AROCLOR 1254 (10%), Method: PREINCUBATION): inactive; negative
- mutagenic call (Test System: AMES SALMONELLA TYPHIMURIUM, Strain/Indicator: TA98, Metabolic Activation: NONE, Method: PREINCUBATION): inactive; negative
- mutagenic call (Test System: AMES SALMONELLA TYPHIMURIUM, Strain/Indicator: TA98, Metabolic Activation: RAT, LIVER, S-9, AROCLOR 1254 (10%), Method: PREINCUBATION): inactive; negative
- mutagenic call (Test System: AMES SALMONELLA TYPHIMURIUM, Strain/Indicator: TA100, Metabolic Activation: HAMSTER, LIVER, S-9, AROCLOR 1254 (10%), Method: PREINCUBATION): inactive; negative
- mutagenic call [1]: inactive; negative
- mutagenic call (Test System: AMES SALMONELLA TYPHIMURIUM, Strain/Indicator: TA100, Metabolic Activation: RAT, LIVER, S-9, AROCLOR 1254 (10%), Method: PREINCUBATION): inactive; negative
- mutagenic call (Test System: AMES SALMONELLA TYPHIMURIUM, Strain/Indicator: TA1535, Metabolic Activation: HAMSTER, LIVER, S-9, AROCLOR 1254 (10%), Method: PREINCUBATION): inactive; negative
- mutagenic call [2]: inactive; negative
- mutagenic call (Test System: AMES SALMONELLA TYPHIMURIUM, Strain/Indicator: TA1535, Metabolic Activation: RAT, LIVER, S-9, AROCLOR 1254 (10%), Method: PREINCUBATION): inactive; negative
- mutagenic call (Test System: AMES SALMONELLA TYPHIMURIUM, Strain/Indicator: TA1537, Metabolic Activation: HAMSTER, LIVER, S-9, AROCLOR 1254 (10%), Method: PREINCUBATION): inactive; negative
- mutagenic call [3]: inactive; negative
- mutagenic call (Test System: AMES SALMONELLA TYPHIMURIUM, Strain/Indicator: TA1537, Metabolic Activation: RAT, LIVER, S-9, AROCLOR 1254 (10%), Method: PREINCUBATION): inactive; negative

Structure (SMILES): O[C@H]1C=Cc2cccc3c2[C@@]1(O)c1ccccc1-3
- mutagenic call (Test System: AMES SALMONELLA TYPHIMURIUM, Strain/Indicator: TM677, Metabolic Activation: NONE, Method: PREINCUBATION): inactive; negative
- mutagenic call (Test System: AMES SALMONELLA TYPHIMURIUM, Strain/Indicator: TM677, Metabolic Activation: RAT, LIVER, POSTMITOCHONDRIAL SUPERNATANT, AROCLOR 1254, Method: PREINCUBATION): inactive; negative

Structure (SMILES): C1CCCCCC2OC2CCCC1 (stereo not given)
- mutagenic call [5]: inactive; negative
- mutagenic call (Test System: AMES SALMONELLA TYPHIMURIUM, Strain/Indicator: TA100, Metabolic Activation: RAT, LIVER, S-9, AROCLOR 1254, Method: STANDARD PLATE): inactive; negative
- mutagenic call [4]: inactive; negative
- mutagenic call (Test System: AMES SALMONELLA TYPHIMURIUM, Strain/Indicator: TA1535, Metabolic Activation: RAT, LIVER, S-9, AROCLOR 1254, Method: STANDARD PLATE): inactive; negative
- mutagenic call (Test System: UDS RAT HEPATOCYTES, Strain/Indicator: THY INCORP, Metabolic Activation: NONE): inactive; negative

Structure (SMILES): Nc1c2ccccc2nc2ccc(Br)cc12
- mutagenic call [3]: active; positive
